According to ChEMBL document CHEMBL1201862, “PubChem BioAssay data set” (2004):
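Five concentrations, 48 hours, 96-well plates. Here, GI50 denotes the concentration required for 50% inhibition of growth.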 Active and inactive are the calls of the source. No stated cut-off is given here; in the data, active = GI50 up to about 1.1 µM and inactive = higher.

Assays:
Assay in all cases: NCI-60 cell line screen, 48 h
SNB-78 = system: SNB-78
XF498 = system: XF498
DLD-1 = system: DLD-1
HOP-18 = system: HOP-18
KM-20L2 = system: KM-20L2
LXFL 529 = system: LXFL 529
DMS-273 = system: DMS-273
RXF 631 = system: RXF 631
M19-MEL = system: M19-MEL

Measured: GI50

CN(C)c1ccc(/C=C(\C#N)C(=O)c2ccccc2)cc1Br
inactive: SNB-78 > 100 µM | XF498 > 100 µM | DLD-1 67.5 µM | HOP-18 > 100 µM | KM-20L2 > 100 µM | LXFL 529 > 100 µM | DMS-273 > 100 µM | RXF 631 > 100 µM

N#CCCN(CCC#N)c1ccc(/C=C2\N=C(COc3ccc(Cl)cc3Cl)OC2=O)cc1
inactive: SNB-78 > 100 µM | XF498 > 100 µM | DLD-1 > 100 µM | M19-MEL > 100 µM | KM-20L2 > 100 µM | LXFL 529 > 100 µM | DMS-273 > 100 µM | RXF 631 > 100 µM

CC1(C)C2CCC13C(=O)C1OC3(C2)C2C(=O)N(c3ccccc3)C(=O)C12 (configuration not stated)
inactive: SNB-78 > 100 µM | HOP-18 > 100 µM | KM-20L2 > 100 µM | LXFL 529 > 100 µM | DMS-273 > 100 µM | RXF 631 > 100 µM

COc1ccc(O)cc1C=O
inactive: SNB-78 > 100 µM | XF498 99.1 µM | DLD-1 > 100 µM | M19-MEL 77.1 µM | HOP-18 > 100 µM | KM-20L2 > 100 µM | LXFL 529 77.1 µM | DMS-273 87.9 µM | RXF 631 > 100 µM

C[C@@H]1C[C@]2(C[C@@H](C)C3[C@@H](CC4(C)[C@@H]5CCC6C(C)(C)OC(=O)C=C[C@]67C[C@@]5(CC[C@]34C)OO7)O2)OC1=O (some centres not stated)
inactive: SNB-78 52.5 µM | XF498 17.6 µM | DLD-1 52.7 µM | HOP-18 > 100 µM | LXFL 529 31.6 µM | DMS-273 > 100 µM

Nc1nc(-c2ccco2)cc(-c2ccco2)n1
inactive: XF498 > 100 µM | M19-MEL > 100 µM | KM-20L2 > 100 µM | LXFL 529 > 100 µM | DMS-273 5.14 µM

COc1ccc(C2S/C(=C\c3cccc(O)c3)C(=O)N2NC(=O)Cc2ccccc2)cc1 (configuration not stated)
inactive: DLD-1 > 100 µM | M19-MEL > 100 µM | HOP-18 > 100 µM | LXFL 529 > 100 µM | DMS-273 > 100 µM

O=C1[C@H]2ON(c3ccccc3)C(c3ccccc3Cl)[C@H]2C(=O)N1c1ccc(Cc2ccc(N3C(=O)[C@@H]4ON(c5ccccc5)C(c5ccccc5Cl)[C@@H]4C3=O)cc2)cc1 (some centres not stated)
inactive: SNB-78 > 100 µM | DLD-1 > 100 µM | M19-MEL > 100 µM | HOP-18 > 100 µM | KM-20L2 > 100 µM | LXFL 529 > 100 µM | DMS-273 > 100 µM

O=C(CCN1CCCCC1CCO)Nc1ccc2c(c1)C(=O)c1ccc(NC(=O)CCN3CCCCC3CCO)cc1C2=O (configuration not stated)
inactive: SNB-78 3.2 µM | DLD-1 2.19 µM | M19-MEL 26.4 µM | HOP-18 2.25 µM | KM-20L2 20.1 µM | LXFL 529 2.32 µM | DMS-273 2.83 µM

O=C1c2c(c3c4ccccc4[nH]c3c3[nH]c4ccccc4c23)C(=O)N1Cc1ccccc1
inactive: SNB-78 3.06 µM | XF498 2 µM | DLD-1 3.64 µM | M19-MEL 3.64 µM | KM-20L2 2.94 µM | LXFL 529 3.44 µM | DMS-273 2.74 µM | RXF 631 2.32 µM

CN(C)C(=O)c1ccc([N+](=O)[O-])cc1
inactive: SNB-78 > 100 µM | DLD-1 > 100 µM | M19-MEL > 100 µM | KM-20L2 > 100 µM | LXFL 529 > 100 µM | DMS-273 > 100 µM

COC(=O)C(=O)C(C(=O)C=C(C)C)C(=O)C(=O)Nc1ccc(Cl)cc1C (configuration not stated)
inactive: DLD-1 > 100 µM | M19-MEL > 100 µM | HOP-18 > 100 µM | KM-20L2 > 100 µM | LXFL 529 > 100 µM | DMS-273 35.6 µM | RXF 631 > 100 µM

COC1=C(C)C(=O)c2c(cc3c(c2O)C(C)(CCC=C(C)C)C(C)O3)C1=O (configuration not stated)
inactive: SNB-78 > 100 µM | XF498 > 100 µM | DLD-1 > 100 µM | M19-MEL 10.1 µM | HOP-18 > 48.2 µM | KM-20L2 > 100 µM | LXFL 529 > 100 µM | DMS-273 > 57.1 µM

Cc1c(-c2nnc(-c3ccc(Cl)cc3)o2)c(=O)n(-c2ccccc2)n1C
inactive: SNB-78 > 100 µM | XF498 > 100 µM | DLD-1 > 100 µM | M19-MEL > 100 µM | HOP-18 > 100 µM | KM-20L2 > 100 µM | LXFL 529 > 100 µM | DMS-273 > 100 µM

COc1cc(Nc2cnc3ccc(N)cc3n2)cc(OC)c1OC
inactive: SNB-78 > 100 µM | XF498 11 µM | M19-MEL > 84.1 µM | HOP-18 39.4 µM | KM-20L2 56.6 µM | LXFL 529 56.5 µM | DMS-273 > 85.3 µM | RXF 631 > 100 µM

C[C@]12CCC(=O)C[C@H]1CCC(O)[C@@H]2Br (some centres not stated)
inactive: XF498 > 100 µM | DLD-1 > 100 µM | M19-MEL > 100 µM | HOP-18 > 100 µM | KM-20L2 > 100 µM | LXFL 529 > 100 µM | DMS-273 > 100 µM | RXF 631 > 100 µM

CC(=O)O/N=C/c1ncccc1CO
inactive: XF498 > 100 µM | DLD-1 > 100 µM | M19-MEL > 100 µM | HOP-18 > 100 µM | KM-20L2 > 100 µM | LXFL 529 > 100 µM | DMS-273 > 100 µM | RXF 631 > 100 µM

CCOc1ccccc1/N=N/c1ccc2oc(=O)c(C(=O)Nc3cccc(C)c3)cc2c1
inactive: SNB-78 24.5 µM | XF498 34.6 µM | DLD-1 24.2 µM | M19-MEL 27 µM | KM-20L2 43.5 µM | LXFL 529 26.1 µM | DMS-273 34.3 µM | RXF 631 34.5 µM

Oc1c2c(nc3cc4c(cc13)OCO4)-c1ccccc1CC2
inactive: XF498 > 100 µM | DLD-1 > 100 µM | M19-MEL > 100 µM | KM-20L2 > 100 µM | LXFL 529 > 100 µM | DMS-273 > 100 µM | RXF 631 > 100 µM
